Measured values reported in patent US20030018071A1, “Method and compositions for treating fibrotic diseases” (priority 2002, published 2003).
Converted amounts (≈) assume the structure as drawn.

What was measured:
[1] = system: human fetal lung fibroblasts; experiment: Fibroblast chemotaxis toward fibronectin (Boyden blindwell chamber); format: cell-based
Procedure: Since the activity of a PDE4 inhibitor should be dependent on endogenous cyclic AMP levels, a study was designed to determine if endogenous prostaglandin production rendered cells susceptible to the effects of Ariflo. To accomplish this, human fetal lung fibroblasts were cultured and, after achieving confluence, were incubated for 60 minutes with and without indomethacin (2×10^−6 M) to inhibit cyclooxygenase. Fibroblasts were then trypsinized and placed in the upper portion of a Boyden blindwell chemotaxis chamber. Fibronectin, 20 μg/ml, was placed in the lower portion of the chamber as the chemoattractant. Indomethacin (2×10^−6 M) was added to the upper side of the chemotaxis chamber. […] In three separate experiments, the concentration of Ariflo required to inhibit chemotaxis by 50% was 4.9±2.5 μg/ml. In the presence of indomethacin, Ariflo inhibited chemotaxis only at the highest concentration tested 10 μg/ml reducing the response to 58.7±21.0% of control (p<005) compared to indomethacin. […] Since cyclooxygenase activity and prostaglandin production can be modulated by a variety of mediators present in an inflammatory milieu, fibroblasts in such a setting may be particularly sensitive to the inhibitory effects of Ariflo. Such an effect has therapeutic value in fibrotic disorders.

[2] = developed as an antidepressant; cited from earlier work

## COc1ccc([C@]2(C#N)CC[C@@H](C(=O)O)CC2)cc1OC1CCCC1 [Ariflo, cis 4-cyano-4-(3-cyclopentyloxy-4-methoxyphenyl)cyclohexan-1-carboxylic acid]
[1]; Homo sapiens, Fibroblast, Ariflo 10 μg/ml in the presence of indomethacin 2×10^−6 M, compared to indomethacin, read-out: chemotaxis response, % of control
  activity at 10 µg/mL: 58.7 ± 21%
[1]; Homo sapiens, Fibroblast, control fibroblasts (no indomethacin), fibronectin 20 μg/ml as chemoattractant, three separate experiments, read-out: concentration required to inhibit chemotaxis by 50%
  IC50: 4.9 ± 2.5 µg/mL (≈ 14.3 µM)
[1]; added to control fibroblasts
  effect on chemotaxis (in words): inhibited chemotaxis in a concentration dependent manner

## COc1ccc2c(c1)c(CC(=O)O)c(C)n2C(=O)c1ccc(Cl)cc1 [Indomethacin, indomethacin, reference compound]
[1]; indomethacin alone 2×10^−6 M, fibronectin 20 μg/ml
  chemotaxis, % compared to control: 159±33%

## COc1ccc(C2CNC(=O)C2)cc1OC1CCCC1 (centres unmarked) [rolipram]
[2]
  side effects in clinical studies: has psychotropic activity and produces gastrointestinal effects, e.g., pyrosis, nausea and emesis
